Values of other authors, collected in patent US20240350409A1, “TRANSDERMAL DELIVERY FORMULATIONS AND METHODS FOR THE MANUFACTURE THEREOF” (LifeActive, Inc., priority 2023, published 2024).

Conditions: in H2O at ~15-20° C.; weak organic acids

| Substance | pKa3 | pKa2 |
| --- | --- | --- |
| Citric Acid | 6.40 |  |
| Maleic Acid |  | 6.07 |
